Test results: ChEMBL document CHEMBL4706632, “Development of Potential Antitumor Agents from the Scaffolds of Plant-Derived Terpenoid Lactones” (J Med Chem, 2020)
pEC50, pIC50: −log10 of the molar value.

What was measured:
A549 = experiment: Antiproliferative activity against human A549 cells incubated for 48 hrs by MTT assay; type: functional, cell-based; settings: A549, 48 h
P388 [1] = experiment: Cytotoxicity against mouse P388 cells incubated for 48 hrs by MTT assay; type: functional, cell-based; settings: P388, 48 h
NCI-H1975 = experiment: Antiproliferative activity against human NCI-H1975 cells incubated for 48 hrs by MTT assay; type: functional, cell-based; settings: NCI-H1975, 48 h
P388 [2] = experiment: Antiproliferative activity against mouse P388 cells; type: functional, cell-based
HL-60 [3] = experiment: Antiproliferative activity against human HL-60 cells incubated for 24 hrs by MTT assay; type: functional, cell-based; settings: HL-60, 24 h
A2058 = experiment: Cytotoxicity against human A2058 cells incubated for 48 hrs by MTT assay; type: functional, cell-based; settings: A2058, 48 h
HT-29 = experiment: Cytotoxicity against human HT-29 cells incubated for 48 hrs by MTT assay; type: functional, cell-based; settings: HT-29, 48 h
MDA-MB-231 [4] = experiment: Cytotoxicity against human MDA-MB-231 cells incubated for 48 hrs by MTT assay; type: functional, cell-based; settings: MDA-MB-231, 48 h
HL-60 [5] = experiment: Antiproliferative activity against human HL-60 cells; type: functional, cell-based
HCT-116 [6] = experiment: Cytotoxicity against human HCT-116 cells; type: functional, cell-based
MCF7 [7] = experiment: Antiproliferative activity against human MCF7 cells incubated for 48 hrs by SRB assay; type: functional, cell-based; settings: MCF7, 48 h
Jurkat [8] = experiment: Cytotoxicity against human Jurkat cells incubated for 72 hrs by ATPlite assay; type: functional, cell-based
CCRF-CEM = experiment: Cytotoxicity against human CEM cells incubated for 72 hrs by MTT assay; type: functional, cell-based
SW626 = experiment: Cytotoxicity against human SW626 cells; type: functional, cell-based
WM 266-4 = experiment: Cytotoxicity against human WM 266-4 cells incubated for 72 hrs by ATPlite assay; type: functional, cell-based; settings: WM 266-4, 72 h
[9] = Cytotoxicity against human Lu-1 cells; type: functional, cell-based; settings: Lu1
HCT-116 [10] = experiment: Cytotoxicity against human HCT116 cells incubated for 72 hrs by ATPlite assay; type: functional, cell-based; settings: HCT-116, 72 h
HL-60 [11] = experiment: Cytotoxicity against human HL-60 cells incubated for 72 hrs by ATPlite assay; type: functional, cell-based; settings: HL-60, 72 h
LNCaP [12] = experiment: Cytotoxicity against human LNCaP cells; type: functional, cell-based
L1210 = experiment: Cytotoxicity against mouse L1210 cells; type: functional, cell-based
[13] = Suppression of ZEB1 protein level in human T-24 cells incubated for 24 hrs by Western blot analysis; type: functional, cell-based; settings: T-24, 24 h
[14] = Antiproliferative activity against human OVCA429 cells incubated for 72 hrs by MTT assay; type: functional, cell-based; settings: OVCA429, 72 h
[15] = Inhibition of PAFR in New Zealand rabbit platelets assessed as reduction in PAF-induced platelet aggregation measured within 5 mins by aggregometry analysis; type: tissue-based; settings: Oryctolagus cuniculus
[16] = Inhibition of [3H]PAF-acether binding to PAFR in rabbit platelet plasma membranes incubated for 1 hr; type: cell membranes, Oryctolagus cuniculus, Cell membrane
MDA-MB-231 [17] = experiment: Antiproliferative activity against human MDA-MB-231 cells incubated for 24 hrs by MTT assay; type: functional, cell-based; settings: MDA-MB-231, 24 h
[18] = Cmax in Sprague-Dawley rat at 10 mg/kg, iv measured after 0.08 to 72 hrs by LC/QTOF/MS method; type: ADME, organism-based; design: route intravenous, dose 10 mg/kg, time upper 72 hrs, time lower 0.08 hrs; settings: in vivo
[19] = Cmax in Sprague-Dawley rat at 10 mg/kg, po measured after 0.25 to 72 hrs by LC/QTOF/MS method; type: ADME, organism-based; design: route oral, time upper 72 hrs, time lower 0.25 hrs, dose 10 mg/kg; settings: in vivo
MCF7 [20] = experiment: Antiproliferative activity against human MCF7 cells incubated for 24 hrs by MTT assay; type: functional, cell-based; settings: MCF7, 24 h
MDA-MB-435 = experiment: Antiproliferative activity against human MDA-MB-435 cells incubated for 48 hrs by [3H]-thymidine incorporation assay; type: functional, cell-based
SW480 [21] = experiment: Antiproliferative activity against human SW480 cells incubated for 72 hrs by MTT assay; type: functional, cell-based; settings: SW480, 72 h
MCF7 [22] = experiment: Antiproliferative activity against human MCF7 cells incubated for 48 hrs by [3H]-thymidine incorporation assay; type: functional, cell-based
[23] = Cytotoxicity against human TSU-Pr1 cells incubated for 2 hrs; type: functional, cell-based; settings: TSU-Pr1, 2 h
LNCaP [24] = experiment: Cytotoxicity against human LNCAP cells incubated for 48 hrs clonogenic survival assay; type: functional, cell-based; settings: time 48 hrs, read-out: LD50 (the source's name)
EL4 = experiment: Cytotoxicity against mouse EL4 cells incubated for 48 hrs by sulforhodamine B staining based ELISA; type: functional, cell-based; settings: EL4, 48 h
CCRF S-180 = experiment: Cytotoxicity against mouse CCRF S-180 cells incubated for 48 hrs by sulforhodamine B staining based ELISA; type: functional, cell-based; settings: CCRF S-180, 48 h
MCF7 [25] = experiment: Cytotoxicity against human MCF7 cells incubated for 48 hrs by sulforhodamine B staining based ELISA; type: functional, cell-based; settings: MCF7, 48 h
[26] = target: Sarcoplasmic/endoplasmic reticulum calcium ATPase 1 (Oryctolagus cuniculus, UniProt P04191); experiment: Inhibition of rabbit skeletal muscle SERCA1 assessed as reduction in calcium uptake preincubated for 10 mins followed by ATP addition and measured after 4 mins by scintillation liquid method
NCI-N87 = experiment: Cytotoxicity against human NCI-N87 cells incubated for 72 hrs by Alamar Blue method; type: functional, cell-based; settings: NCI-N87, 72 h
PC-3 = experiment: Antiproliferative activity against human PC-3 cells incubated for 72 hrs by CCK8 assay; type: functional, cell-based; settings: PC-3, 72 h
LNCaP [27] = experiment: Antiproliferative activity against human LNCaP cells incubated for 72 hrs by CCK8 assay; type: functional, cell-based
CFPAC-1 = experiment: Antiproliferative activity against human CFPAC-1 incubated for 72 hrs by alamar blue assay; type: functional, cell-based; settings: CFPAC-1, 72 h
HGC-27 = experiment: Cytotoxicity against human HGC-27 cells incubated for 72 hrs by Alamar Blue method; type: functional, cell-based; settings: HGC-27, 72 h
BXPC-3 = experiment: Antiproliferative activity against human BXPC-3 incubated for 72 hrs by alamar blue assay; type: functional, cell-based; settings: BXPC-3, 72 h
ASPC1 = experiment: Antiproliferative activity against human ASPC1 incubated for 72 hrs by alamar blue assay; type: functional, cell-based; settings: ASPC1, 72 h
Jurkat [28] = experiment: Antiproliferative activity against human Jurkat cells incubated for 3 to 6 days by alamar blue assay; type: functional, cell-based
DU-145 = experiment: Antiproliferative activity against human DU-145 cells incubated for 72 hrs by CCK8 assay; type: functional, cell-based; settings: DU-145, 72 h
[29] = Antiproliferative activity against human PaTu8988 incubated for 72 hrs by alamar blue assay; type: functional; settings: PaTu8988, 72 h
Raji = experiment: Antiproliferative activity against human Raji cells incubated for 3 to 6 days by alamar blue assay; type: functional, cell-based
PANC-1 = experiment: Cytotoxicity against human Panc-1 cells incubated for 72 hrs by alamar blue assay; type: functional, cell-based; settings: PANC-1, 72 h
SGC-7901 = experiment: Cytotoxicity against human SGC-7901 cells incubated for 72 hrs by Alamar Blue method; type: functional, cell-based; settings: SGC-7901, 72 h
SW480 [30] = experiment: Cytotoxicity against human SW480 cells incubated for 72 hrs by Cell Titer-Glo luminescence assay; type: functional, cell-based; settings: SW480, 72 h
AGS = experiment: Cytotoxicity against human AGS cells incubated for 72 hrs by Alamar Blue method; type: functional, cell-based
SW1990 = experiment: Antiproliferative activity against human SW1990 incubated for 72 hrs by alamar blue assay; type: functional, cell-based; settings: SW1990, 72 h
MGC-803 = experiment: Cytotoxicity against human MGC-803 cells incubated for 72 hrs by Alamar Blue method; type: functional, cell-based; settings: MGC-803, 72 h
[31] = Antitumor activity against human PaTu8988 cells xenografted in NOD/SCID mouse assessed as tumor growth inhibition at 5 mg/kg, ip administered daily for 60 days by digital caliper method relative to control; type: functional; settings: 1440 h, time 60 day, read-out: TGI
RKO = experiment: Cytotoxicity against human RKO cells incubated for 72 hrs by Cell Titer-Glo luminescence assay; type: functional, cell-based

Chain of Sarcoplasmic/endoplasmic reticulum calcium ATPase 1 (P04191 whole entry): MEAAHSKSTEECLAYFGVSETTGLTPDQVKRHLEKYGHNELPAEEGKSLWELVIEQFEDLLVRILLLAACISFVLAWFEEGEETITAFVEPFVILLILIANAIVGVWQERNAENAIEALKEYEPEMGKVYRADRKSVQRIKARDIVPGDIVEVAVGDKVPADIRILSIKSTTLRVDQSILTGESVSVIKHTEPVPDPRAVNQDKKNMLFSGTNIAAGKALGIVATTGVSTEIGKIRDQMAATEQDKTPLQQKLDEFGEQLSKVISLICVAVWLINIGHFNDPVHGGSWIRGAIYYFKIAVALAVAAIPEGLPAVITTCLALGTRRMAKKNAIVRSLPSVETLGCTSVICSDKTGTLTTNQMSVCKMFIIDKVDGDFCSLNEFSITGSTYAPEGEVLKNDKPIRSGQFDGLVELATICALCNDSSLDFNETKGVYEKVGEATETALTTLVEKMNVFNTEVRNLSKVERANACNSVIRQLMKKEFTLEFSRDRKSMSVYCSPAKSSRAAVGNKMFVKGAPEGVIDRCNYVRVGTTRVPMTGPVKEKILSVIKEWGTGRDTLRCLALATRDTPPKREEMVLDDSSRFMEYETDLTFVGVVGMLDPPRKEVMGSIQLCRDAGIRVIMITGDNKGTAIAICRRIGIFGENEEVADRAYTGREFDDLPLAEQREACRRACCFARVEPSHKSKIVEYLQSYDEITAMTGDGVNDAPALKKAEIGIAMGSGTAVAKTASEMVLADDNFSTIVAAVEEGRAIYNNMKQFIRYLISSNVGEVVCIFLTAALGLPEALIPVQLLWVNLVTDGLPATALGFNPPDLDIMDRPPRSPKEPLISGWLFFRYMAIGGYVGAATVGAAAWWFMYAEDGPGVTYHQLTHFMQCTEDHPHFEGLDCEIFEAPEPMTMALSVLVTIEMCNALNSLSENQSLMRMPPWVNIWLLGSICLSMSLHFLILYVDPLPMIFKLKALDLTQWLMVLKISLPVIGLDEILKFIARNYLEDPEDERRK

## CC(C)[C@H]1OC(=O)C=C2[C@@]13O[C@@H]3[C@H]1OC(=O)[C@@]3(C)[C@@H](O)CC[C@@]2(C)[C@@H]13
A549
  pIC50: 5.28
P388 [1]
  pIC50: 6.14
NCI-H1975
  pIC50: 5.44

## C=C1CC[C@@H]2[C@](C)(CO)[C@H](O)CC[C@@]2(C)[C@@H]1C/C=C1/C(=O)OC[C@H]1O [ANDROGRAPHOLIDE]
P388 [2]
  pIC50: 5.54
HL-60 [3]
  pIC50: 5.62
A2058
  pIC50: 4.59
HT-29
  pIC50: < 4.52
MDA-MB-231 [4]
  pIC50: < 4.52
HL-60 [5]
  pIC50: 5.15
HCT-116 [6]
  pIC50: < 4.40
MCF7 [7]
  pIC50: 4.82

## C/C(=C\[C@H]1C[C@@H]([C@@H]2CC[C@]34C[C@]23C=C[C@@H]2[C@@]3(C)CC=C5C[C@@H](c6ccccc6)OC[C@]5(C)[C@@H]3C[C@@H](O)[C@]24C)C(=O)O1)CO [DICHAPETALIN A]
Jurkat [8]
  pIC50: 5.52
CCRF-CEM
  pIC50: 5.02
SW626
  pIC50: 6.47
WM 266-4
  pEC50: 4.77
[9]
  pIC50: 5.15
HCT-116 [10]
  pEC50: 6.60
HL-60 [11]
  pIC50: 4.96
LNCaP [12]
  pIC50: 4.92
L1210
  EC90: < 0.17 nM

## C[C@@H]1C(=O)O[C@H]2[C@H](O)[C@@]34[C@H]5C[C@@H](C(C)(C)C)[C@]36[C@@H](OC(=O)[C@@H]6O)O[C@@]4(C(=O)O5)[C@@]12O [GINKOLIDE B]
[13]
  pIC50: 6.30
[14]
  pIC50: < 4.30
[15]
  pIC50: 6.89
[16]
  pIC50: 6.60

## COC(=O)C[C@H]1[C@]2(C)C3=C(C)[C@H](c4ccoc4)C[C@H]3O[C@@H]2[C@@H]2OC(=O)[C@]3(C)C=CC(=O)[C@@]1(C)[C@@H]23 [NIMBOLIDE]
MDA-MB-231 [17]
  pIC50: 5.22
[18]
  Cmax: 5560 ng/mL
[19]
  Cmax: 15.3 ng/mL
MCF7 [20]
  pIC50: 5.40

## CC1(C)OC(=O)C=C[C@]2(C)[C@H]3CC[C@@]4(C)[C@H](c5ccoc5)OC(=O)[C@H]5O[C@]54[C@]3(C)C(=O)C[C@@H]12 [OBACUNONE]
MDA-MB-435
  pIC50: 5.17
SW480 [21]
  pIC50: 4.25
MCF7 [22]
  pIC50: 7.70

## C/C=C(/C)C(=O)O[C@H]1C(C)=C2[C@H]([C@@H]1OC(=O)CCCCCCC)[C@@](C)(OC(C)=O)C[C@H](OC(=O)CCC)[C@@]1(O)[C@H]2OC(=O)[C@@]1(C)O [THAPSIGARGIN]
[23]
  pIC50: 7.52
LNCaP [24]
  CC50: 10 nM
EL4
  pIC50: 7.00
CCRF S-180
  pIC50: 7.52
MCF7 [25]
  pIC50: 5.64
[26]
  pIC50: 8.41

## CC(C)[C@]12O[C@H]1[C@@H]1O[C@@]13[C@@]1(C)CCC4=C(COC4=O)[C@@H]1C[C@@H]1O[C@@]13C2=O [TRIPTONIDE]
NCI-N87
  pIC50: > 7.70
PC-3
  pIC50: 7.92
LNCaP [27]
  pIC50: 8.00
CFPAC-1
  pIC50: > 7.70
HGC-27
  pIC50: > 7.70
BXPC-3
  pIC50: > 7.70
ASPC1
  pIC50: > 7.70
Jurkat [28]
  pIC50: 8.40
DU-145
  pIC50: 8.00
[29]
  pIC50: > 7.70
Raji
  pIC50: 8.40
PANC-1
  pIC50: > 7.70
SGC-7901
  pIC50: > 7.70
SW480 [30]
  pIC50: 7.77
AGS
  pIC50: > 7.70
SW1990
  pIC50: > 7.70
MGC-803
  pIC50: > 7.70
[31]
  inhibition in vivo at 5 mg/kg: 97.5%
RKO
  pIC50: 7.82
